Reference: PubChem BioAssay (NCI)
Where “and” joins values, the source holds several entries; their conditions need not be identical. Equal values may be shown once.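 All cell lines were grown in 96-well plates and treated with compound for 48 hours. Abbreviation: GI50, concentration required for 50% inhibition of growth. At the TGI there is no net growth.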

Assays:
Test in all cases: NCI tumour cell line growth inhibition, 48 h
[1] = test system: ACHN renal
[2] = test system: CCRF-CEM leukemia
[3] = test system: MALME-3M melanoma
[4] = test system: NCI-H522 lung
[5] = test system: OVCAR-5 ovarian
[6] = test system: OVCAR-8 ovarian
[7] = test system: SNB-75 CNS
[8] = test system: U251 CNS
[9] = test system: DU-145 prostate
[10] = test system: MDA-MB-435

Compound | TGI [1] [µM] | TGI [2] [µM] | TGI [3] [µM] | TGI [4] [µM] | TGI [5] [µM] | TGI [6] [µM] | TGI [7] [µM] | TGI [8] [µM] | TGI [9] [µM] | GI50 [1] | GI50 [2] | GI50 [9] | GI50 [10] | TGI [10] | GI50 [5] [µM] | GI50 [6] [µM] | GI50 [7] [µM] | GI50 [8] | GI50 [4] [µM] | GI50 [3] [µM]
COC(=O)CCC(=O)CC1CC(=O)C2CCCN12 (centres undefined) | > 100 | > 100 | > 100 | > 100 | > 100 | > 100 | > 100 | > 100 | – | – | – | – | – | – | – | – | – | – | – | –
O=c1[nH]c2cc(Cl)ccc2nc1/C(=N\O)C(O)c1ccc(Cl)cc1Cl (centres undefined) | > 100 | > 100 | > 100 | > 100 | > 100 | > 100 | > 100 | > 100 | – | – | – | – | – | – | – | – | – | – | – | –
COc1cccc(-n2c3nc(=O)n(C)c(=O)c-3nc3ccccc32)c1 | 47.3 | 79.1 | 29.8 | 97.5 | 37.2 | 49.6 | 76.2 | 38.2 | – | – | – | – | – | – | – | – | – | – | – | –
O=c1[nH]cnc2cccc(Cl)c12 | > 100 | > 100 | > 100 | > 100 | > 100 | > 100 | > 100 | > 100 | > 100 | – | – | – | – | – | – | – | – | – | – | –
O=C(Nc1cc(Cl)ccc1Cl)C(=O)C(c1cnc2ccccc2n1)[N+](=O)[O-] (centres undefined) | > 100 | > 100 | > 100 | > 100 | > 100 | > 100 | > 100 | > 100 | – | – | – | – | – | – | – | – | – | – | – | –
O=C1[C@H]2ON(c3ccccc3)C(c3ccc(Cl)cc3)[C@H]2C(=O)N1c1ccc(Cc2ccc(N3C(=O)[C@@H]4ON(c5ccccc5)C(c5ccc(Cl)cc5)[C@@H]4C3=O)cc2)cc1 (some centres undefined) | > 100 | > 100 | > 100 | > 100 | > 100 | > 100 | > 100 | > 100 | – | – | – | – | – | – | – | – | – | – | – | –
COC(=O)/C(C#N)=C1\CCC(O)N1 (centres undefined) | > 100 | > 100 | > 100 | > 100 | > 100 | > 100 | > 100 | > 100 | – | – | – | – | – | – | – | – | – | – | – | –
CN[C@@H](C)[C@H](NC)c1ccccc1 | – | > 100 | > 100 | > 100 | – | > 100 | > 100 | > 100 | – | – | – | – | – | – | – | – | – | – | – | –
Cc1cc(C)c(C2[C@H]3C(=O)N(c4ccc(Cc5ccc(N6C(=O)[C@@H]7ON(c8ccccc8)C(c8c(C)cc(C)cc8C)[C@@H]7C6=O)cc5)cc4)C(=O)[C@H]3ON2c2ccccc2)c(C)c1 (some centres undefined) | > 100 | > 100 | > 100 | > 100 | > 100 | > 100 | > 100 | > 100 | – | – | – | – | – | – | – | – | – | – | – | –
CN(C)C(=S)/N=c1\ss/c(=N\C(=S)N(C)C)n1-c1ccc(Cl)c(Cl)c1 | > 100 | > 100 | > 100 | > 100 | > 100 | > 100 | 61.2 | > 100 | – | – | – | – | – | – | – | – | – | – | – | –
CC(C)N=c1cc2n(-c3ccc(Cl)cc3)c3ccccc3nc-2cc1Nc1ccc(Cl)cc1 | > 100 | > 100 | – | – | > 100 | > 100 | 15.9 | > 100 | > 100 | 1.18 µM and 2.18 µM | 0.75 µM and 2.49 µM | 3.14 µM and 3.41 µM | 1.04 µM and 1.8 µM | 2.74 µM and 4.46 µM | 2.15 | 2.79 | 1.23 | 1.07 µM and 3.11 µM | – | –
O=C1CC2C(=O)N(Cc3ccccc3)C1C=C2S(=O)(=O)c1ccccc1 (centres undefined) | > 100 | > 100 | > 100 | > 100 | – | > 100 | > 100 | > 100 | – | – | – | – | – | – | – | – | – | – | – | –
Cc1cc(S(=O)(=O)N/N=C(\Sc2cc(Cl)c(C)cc2S(N)(=O)=O)c2ccc(Cl)cc2)c(Cl)cc1Cl | 73.9 | > 100 | – | > 100 | > 100 | > 100 | – | > 100 | > 100 | 25.6 µM | 36.8 µM | > 100 µM | > 100 µM | > 100 µM | > 100 | > 100 | – | 53.1 µM | 72.7 | –
Cc1cc2c(cc1Cl)SC(=Nc1ccc(Cl)cc1)N(S(=O)(=O)c1ccccc1)S2(=O)=O | 10.5 | 27.4 | – | 52.8 | 18.7 | 30.8 | – | 19.5 | 25.1 | 1.95 µM | 4.92 µM | 12.6 µM | 5.18 µM | 19.6 µM | 4.43 | 12.4 | – | 5.96 µM | 12.4 | –
Cc1ccc(S(=O)(=O)NCCNc2nccc(-c3c(-c4ccc(F)cc4)nc4sccn34)n2)cc1 | > 100 | – | > 100 | > 100 | > 100 | 53.8 | 15 | 22.6 | – | 2.3 µM | – | – | – | – | > 100 | 5 | 2.65 | 4.72 µM | 6.95 | 5.07
CC(=O)c1sc(-c2nc(C)c(C(=O)/C=C\c3ccc(/C=C\C(=O)c4sc(-c5nc(C)c(C(C)=O)s5)nc4C)cc3)s2)nc1C | > 100 | > 100 | > 100 | > 100 | > 100 | > 100 | – | > 100 | – | – | – | – | – | – | – | – | – | – | – | –
CC(C)(C=O)CC(C#N)/C(=N\NC(N)=O)C(=O)Nc1ccccc1C(N)=O (centres undefined) | > 100 | > 100 | > 100 | > 100 | > 100 | > 100 | – | > 100 | – | – | – | – | – | – | – | – | – | – | – | –
C=CCNC(=O)N(CCC)CCCCC(NC(C)=O)C(=O)NCc1ccccc1 (centres undefined) | > 100 | > 100 | > 100 | > 100 | > 100 | > 100 | > 100 | > 100 | – | – | – | – | – | – | – | – | – | – | – | –
COc1ccc2ncn(-c3cc(O[C@H](C)c4ccccc4Cl)c(C(N)=O)s3)c2c1 | > 25 | 6.35 | > 25 | 0.221 | > 25 | 20.8 | > 19.7 | > 25 | – | 1.13 µM | 0.00861 µM | – | – | – | 0.0263 | 0.0274 | 0.148 | 0.0234 µM | 0.0165 | 8.21
Cc1ccc(C2(O)CC(c3ccc([N+](=O)[O-])o3)=NN2C(=O)COc2ccc(Cl)cc2)cc1 (centres undefined) | 43.1 | – | 27.1 | 34.2 | > 94.9 | 20.3 | > 48.3 | 9.09 | – | – | – | – | – | – | – | – | – | – | – | –
O=C(Nc1ccc(-n2cc(-c3ccncc3)c(-c3ccc(Cl)c(O)c3)n2)cc1)Nc1ccc(Cl)c(C(F)(F)F)c1 | 4.94 | 8.79 | – | – | 8.98 | 4.8 | 2.14 | 2.32 | 3.85 | 1.78 µM | 1.53 µM | 1.84 µM | 1.32 µM | 2.91 µM | 3.3 | 1.77 | 0.363 | 1.08 µM | – | –
